The text below walks through data of patent publication US10308615B2, “Heterocyclic compounds as inhibitors of Vanin-1 enzyme” (Pfizer Inc., priority 2015, dated 2019).

Assay [1] has as its target T1, human vanin-1 (Homo sapiens (Human), UniProt O95497). The experiment in a line: Human Vanin-1 Enzyme Assay 1. As to conditions: 25 pM human vanin-1, 50 uM pantetheine 7-amino-4-trifluoromethylcoumarin, 30 min preincubation, 60 min. It counts as biochemical. Summed up: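 Purified His6/FLAG-tagged extracellular domain of human vanin-1, secreted from CHO cells, at 25 pM final in 50 mM Tris-HCl pH 8.0, 50 mM KCl, 0.005% Brij-35, 1.6 mM cysteamine, 0.5% DMSO. Inhibitor preincubated 30 min at room temperature; 50 uM pantetheine-AFC substrate, 60 min, fluorescence at 405/510 nm; 11-point four-fold dilution series.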

The target of assay [2] is T1, human vanin-1. In words: Human Vanin-1 Enzyme Assay 2. It counts as biochemical. As to conditions: 1 nM human vanin-1, 10 uM substrate, 45 min. The procedure:
Human Vanin-1 Enzyme Assay 2.
The in vitro assay measures enzymatic cleavage of the fluorescently-labeled vanin substrate, pantetheine 7-amino-4-trifluoromethylcoumarin, by human vanin-1.
The vanin-1 protein was prepared in-house from a construct expressing the extracellular domain of human vanin-1 (GenBank ID NM_004666) preceded N-terminally by the honey bee melittin signal peptide, a GSG linker sequence, a His6X tag and a FLAG tag. The secreted, soluble enzyme was purified from the conditioned medium from a CHO cell line stably expressing the resulting protein. Enzyme purification was performed through sequential Ni NTA and size-exclusion chromatography steps.
On the day of the assay, dose response plates were prepared by diluting the inhibitors in DMSO at compound concentration 100-fold the final in-assay concentration. Concentration series were prepared by serially diluting in DMSO in a half-log series for a total of 11 data points. Intermediate compound plates containing compound in 10% DMSO were then created by diluting the compounds 10-fold in assay buffer consisting of 50 mM Tris-HCl pH=8.0, 50 mM KCl, 0.005% Brij-35 and 1.5 mM cysteamine. To begin the assay 3 μL were transferred from the intermediate compound plate to the assay plate.
A working solution of human vanin-1 was prepared by diluting the enzyme stock to 1.25 nM in assay buffer. Next, 24 μL of the vanin-1 working solution were transferred to the assay plate. The enzyme reaction was then initiated by the addition of 3 μL of 100 μM pantetheine 7-amino-4-trifluoromethylcoumarin prepared in assay buffer. The final concentrations in the assay were 1 nM human vanin-1 and 10 uM substrate. The final concentration of DMSO was 1%. The assay plates were incubated for 45 minutes and before they were read on a Spectramax M5 using a 405 nm excitation wavelength and a 505 nm emission wavelength for detection.

T1 sequence (O95497 22-491): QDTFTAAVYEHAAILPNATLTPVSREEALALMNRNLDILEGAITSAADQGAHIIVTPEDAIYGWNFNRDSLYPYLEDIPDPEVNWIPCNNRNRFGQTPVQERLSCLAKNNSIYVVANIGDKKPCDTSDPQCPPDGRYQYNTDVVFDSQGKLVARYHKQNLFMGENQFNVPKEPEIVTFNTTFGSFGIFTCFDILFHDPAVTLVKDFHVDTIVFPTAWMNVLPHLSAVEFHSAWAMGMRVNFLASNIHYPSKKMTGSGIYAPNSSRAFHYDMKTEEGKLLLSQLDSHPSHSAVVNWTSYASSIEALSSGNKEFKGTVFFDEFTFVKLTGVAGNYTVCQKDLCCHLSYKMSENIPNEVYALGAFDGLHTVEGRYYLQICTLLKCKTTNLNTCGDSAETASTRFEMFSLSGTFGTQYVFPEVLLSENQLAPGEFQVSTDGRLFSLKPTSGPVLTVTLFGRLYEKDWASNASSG

As a reminder, the IC50 is the concentration at which inhibition is half-maximal. On to `CC(Nc1ncc(C(=O)c2cccc(C#N)c2)cn1)c1ccc(C(N)=O)cc1` (single isomer, unassigned; (+)) [Example 10, (+)-4-(1-{[5-(3-cyanobenzoyl)pyrimidin-2-yl]amino}ethyl)benzamide], for which the 50% inhibitory concentration (IC50) at human vanin-1 [1] was above 20 µM; against human vanin-1 [2], above 10 µM.

As for `CC(Nc1ncc(C(=O)c2cccc(C#N)c2)cn1)c1ccc(C(N)=O)cc1` (single isomer, unassigned; (-)) [Example 9, (−)-4-(1-{[5-(3-cyanobenzoyl)pyrimidin-2-yl]amino}ethyl)benzamide], the IC50 came out at 0.0103 µM against human vanin-1 [1] and 0.0413 µM against human vanin-1 [2].

`N#Cc1cccc(C(=O)c2cnc(NCc3cnc(N)nc3)nc2)c1` [Example 4, 3-[(2-{[(2-aminopyrimidin-5-yl)methyl]amino}pyrimidin-5-yl)carbonyl]benzonitrile]: the results for the IC50 against human vanin-1 [1] and against human vanin-1 [2] were 0.0224 µM and 0.021 µM, respectively.

Consider `N#Cc1cccc(C(=O)c2cnc(NC3(c4cnccn4)CC3)nc2)c1` [Example 5, 3-[(2-{[1-(pyrazin-2-yl)cyclopropyl]amino}pyrimidin-5-yl)carbonyl]benzonitrile], for which the IC50 at human vanin-1 [1] is 0.0034 µM; at human vanin-1 [2] it was 0.0098 µM. `N#Cc1cccc(C(=O)c2cnc(NCc3ccc(N)nc3)nc2)c1` [Example 6, 3-[(2-{[(6-aminopyridin-3-yl)methyl]amino}pyrimidin-5-yl)carbonyl]benzonitrile]: the IC50 was 0.0373 µM against human vanin-1 [1] and 0.0248 µM on human vanin-1 [2].

On to `CC(Nc1ncc(C(=O)c2cccc(C#N)c2)cn1)c1cccnc1` (stereo not shown) [Example 7, 3-[(2-{[1-(pyridin-3-yl)ethyl]amino}pyrimidin-5-yl)carbonyl]benzonitrile], for which the IC50 on human vanin-1 [2] turned out to be 0.0039 µM. The compound `CC(Nc1ncc(C(=O)c2cccc(C#N)c2)cn1)c1ccc(C(N)=O)cc1` (stereo not shown) [Example 8, 4-(1-{[5-(3-cyanobenzoyl)pyrimidin-2-yl]amino}ethyl)benzamide] returned an IC50 against human vanin-1 [2] of 0.0914 µM. For `O=C(c1cnc(NC2(c3cncnc3)CC2)nc1)c1cccc(C(F)(F)F)c1` [Example 16, (2-{[1-(pyrimidin-5-yl)cyclopropyl]amino}pyrimidin-5-yl)[3-(trifluoromethyl)phenyl]methanone], the values for the IC50 at human vanin-1 [1] and at human vanin-1 [2] were 0.0017 µM and 0.0026 µM, respectively. On to `CS(=O)(=O)c1cccc(C(=O)c2cnc(NC3(c4cncnc4)CC3)nc2)c1` [Example 17, [3-(methylsulfonyl)phenyl](2-{[1-(pyrimidin-5-yl)cyclopropyl]amino}pyrimidin-5-yl)methanone], for which the figures for the IC50 against human vanin-1 [1] and against human vanin-1 [2] were 0.0008 µM and 0.0018 µM, respectively. `COc1cccc(C(=O)c2cnc(NC3(c4cncnc4)CC3)nc2)c1` [Example 18, (3-methoxyphenyl)(2-{[1-(pyrimidin-5-yl)cyclopropyl]amino}pyrimidin-5-yl)methanone]: the IC50 against human vanin-1 [1] was 0.0265 µM; on human vanin-1 [2], 0.0123 µM. The corresponding values for `CS(=O)(=O)c1cccc(C(=O)c2ccc(NCc3cncnc3)nc2)c1` [Example 19, [3-(methylsulfonyl)phenyl]{6-[(pyrimidin-5-ylmethyl)amino]pyridin-3-yl}methanone] are 1.44 µM and 0.0288 µM. For `CS(=O)(=O)c1cccc(C(=O)c2cnc(NCc3cncnc3)nc2)c1` [Example 20, [3-(methylsulfonyl)phenyl]{2-[(pyrimidin-5-ylmethyl)amino]pyrimidin-5-yl}methanone], the figures for the concentration for half-maximal inhibition (IC50) against human vanin-1 [1] and on human vanin-1 [2] were 0.0094 µM and 0.017 µM, respectively. Consider `CS(=O)(=O)c1cccc(C(=O)c2cnc(NCc3cccnn3)nc2)c1` [Example 21, [3-(methylsulfonyl)phenyl]{2-[(pyridazin-3-ylmethyl)amino]pyrimidin-5-yl}methanone], for which the IC50 at human vanin-1 [2] amounted to 0.063 µM.

Consider `N#Cc1cccc(C(=O)c2cnc(NCc3cc[nH]c(=O)c3)nc2)c1` [Example 72, 3-[(2-{[(2-oxo-1,2-dihydropyridin-4-yl)methyl]amino}pyrimidin-5-yl)carbonyl] benzonitrile], for which the IC50 is 0.188 µM against human vanin-1 [1] and 0.0862 µM against human vanin-1 [2]. As to `N#Cc1cccc(C(=O)c2cnc(NC3(c4ccccc4)CCC3)nc2)c1` [Example 129, 3-({2-[(1-phenylcyclobutyl)amino]pyrimidin-5-yl}carbonyl) benzonitrile], the results for the IC50 at human vanin-1 [1] and against human vanin-1 [2] were 0.0099 µM and 0.0124 µM, respectively. Consider `N#Cc1cc(F)cc(C(=O)c2cnc(NCc3cncnc3)nc2)c1` [Example 130, 3-fluoro-5-({2-[(pyrimidin-5-ylmethyl)amino]pyrimidin-5-yl}carbonyl) benzonitrile], for which the IC50 against human vanin-1 [1] is 0.482 µM; on human vanin-1 [2], 0.289 µM. Take `N#Cc1ccc(F)c(C(=O)c2cnc(NCc3cncnc3)nc2)c1` [Example 131, 4-fluoro-3-({2-[(pyrimidin-5-ylmethyl)amino]pyrimidin-5-yl}carbonyl) benzonitrile]: the IC50 at human vanin-1 [1] is 0.541 µM; at human vanin-1 [2] it was 0.37 µM. For `Cc1ccc(C(=O)c2cnc(NCc3cncnc3)nc2)cc1C#N` [Example 132, 2-methyl-5-({2-[(pyrimidin-5-ylmethyl)amino]pyrimidin-5-yl}carbonyl) benzonitrile] the same measures were 0.126 µM and 0.0982 µM. Compound `CC(Nc1ncc(C(=O)c2cccc(C#N)c2)cn1)c1cncnc1` (stereo not shown) [Example 133, 3-[(2-{[1-(pyrimidin-5-yl)ethyl]amino}pyrimidin-5-yl)carbonyl] benzonitrile] registered an IC50 against human vanin-1 [2] of 0.0155 µM.

On to `N#Cc1cc(C(=O)c2cnc(NCc3cncnc3)nc2)ccc1Cl` [Example 134, 2-chloro-5-({2-[(pyrimidin-5-ylmethyl)amino]pyrimidin-5-yl}carbonyl) benzonitrile], for which the IC50 against human vanin-1 [1] was 0.259 µM; at human vanin-1 [2], 0.1 µM. As to `N#Cc1cc(C(=O)c2cnc(NCc3cncnc3)nc2)ccc1F` [Example 135, 2-fluoro-5-({2-[(pyrimidin-5-ylmethyl)amino]pyrimidin-5-yl}carbonyl) benzonitrile], the IC50 at human vanin-1 [1] worked out at 0.0484 µM; against human vanin-1 [2] it was 0.0683 µM. The corresponding values for `NC(=O)c1cccc(C(=O)c2cnc(NCc3cncnc3)nc2)c1` [Example 136, 3-({2-[(pyrimidin-5-ylmethyl)amino]pyrimidin-5-yl}carbonyl) benzamide] are 0.187 µM and 0.137 µM. The corresponding values for `Cn1ncc2ccc(C(=O)c3cnc(NCc4cncnc4)nc3)cc21` [Example 137, (1-methyl-1H-indazol-6-yl){2-[(pyrimidin-5-ylmethyl)amino]pyrimidin-5-yl}methanone] are 0.501 µM and 1.01 µM.

On to `COc1ccc(C(=O)c2cnc(NC(C)c3cncnc3)nc2)cc1` (stereo not shown) [Example 138, (4-methoxyphenyl) (2-{[1-(pyrimidin-5-yl)ethyl]amino}pyrimidin-5-yl)methanone], for which the figures for the IC50 against human vanin-1 [1] and on human vanin-1 [2] were 0.194 µM and 0.437 µM, respectively. As to `O=C(c1ccc(NCc2cncnc2)nc1)c1cccc(C(F)(F)F)c1` [Example 139, {6-[(pyrimidin-5-ylmethyl)amino]pyridin-3-yl}[3-(trifluoromethyl)phenyl]methanone], half-maximal inhibition on human vanin-1 [2] (IC50) required 0.0315 µM. For the compound `O=C(c1cnc(NCc2cncnc2)nc1)c1ccnc(C(F)(F)F)c1` [Example 141, {2-[(pyrimidin-5-ylmethyl)amino]pyrimidin-5-yl}[2-(trifluoromethyl)pyridin-4-yl]methanone], on human vanin-1 [2], half-maximal inhibition (IC50) was put at 0.28 µM.
